Results reported in US20170304251A1, “AVOCADO-DERIVED LIPIDS FOR USE IN TREATING LEUKEMIA” (priority 2014, published 2017).
Where two headings read alike, the source gives them in different places.

How the values were obtained:
Type in all cases: cell-based
TEX cells [1] = assay: Propidium iodide staining and flow cytometry (Example 6); settings: increasing concentrations up to 10 micromolar
Protocol: Avocadyne, avocadene and avocatin B were tested for their toxicity to leukemic cells using TEX cells. The TEX cells were treated with increasing concentrations of each lipid (up to 10 micromolar) and subsequently stained with propidium iodide (PI), which stains only dead cells. The percent viability was measured using flow cytometry gating on PI positive and PI negative cells.

TEX cells [2] = assay: Reactive oxygen species detection (DCFH-DA, DHE, flow cytometry)
Excerpt: Reactive oxygen species (ROS) were detected using 2′,7′dichlorohydrofluorescein-diacetate (DCFH-DA; Sigma Chemical) and dihyodroethidium (DHE; Sigma Chemical). DCFH-DA is hydrolyzed by intracellular esterase to produce a non-fluorescent DCFH product. It can then be oxidized by ROS to produce a highly fluorescent DCF product^14. DHE is a superoxide indicator which upon contact with superoxide anions produces the fluorescent product 2-hydroxyethidium^15. Following drug treatment, TEX cells (5×10^5) were collected and washed in PBS (Sigma-Aldrich). Cells were stained with 5 μM (final concentration) DCFH-DA or 10 μM DHE and allowed to incubate for 30 minutes in a humidified atmosphere containing 5% CO2 at 37° C. Samples were then washed in PBS and ROS was measured by flow cytometry using the Guava EasyCyte 8HT (Millipore). Data were analyzed with GuavaSoft 2.5 software (Millipore).

TEX leukemia cells = assay: MTS cell growth and viability assay, 72 hours
Protocol: Leukemia (OCI-AML2) cells were cultured in Iscove's Modified Dulbecco's Medium (IMDM) (Life Technologies; Grand Island, N.Y.) supplemented with 10% Fetal Bovine Serum (FBS; Seradigm; Providence, Utah) and antibiotics ([…]; Sigma Chemical; St. Louis, Mo.). TEX leukemia cells were cultured in 15% FBS, antibiotics and 2 mM L-glutamine (Sigma Chemical), 20 ng/ml stem cell factor and 2 ng/ml IL-3 (Peprotech; Hamburg Germany). Primary human samples (fresh and frozen) were obtained from the peripheral blood of AML patients who had at least 80% malignant cells among the mononuclear cells and cultured at 37° C. in IMDM, 20% FBS and antibiotics (see table 1a and 1 b for clinical parameters). […] Cell growth and viability was measured using the 3-(4,5-dimethylthiazol-2-yl)-5-(3-carboxymethoxyphenyl)-2-(4-sulfophenyl)-2H-tetrazolium inner salt (MTS) reduction assay (Promega; Madison, Wis.) according to the manufacturer's protocol and as previously described^7. Cells were seeded in 96-well plates, treated with drug for 72 hours and optical density (OD) was measured at 490 nm. Cell viability was also assessed by the trypan blue exclusion assay and by Annexin V and PI staining (Biovision; Mountainview, Calif.), as previously described^7. […] After 72 hours, cell proliferation and viability were measured by the MTS assay.

TEX cells [3] = assay: Hypoxia experiments, sulforhodamine B assay
Protocol: (A) Jurkat T cells were cultured in 50 ng/ml of ethidium bromide, […] sodium pyruvate and 50 μg/ml uridine for 60 days to create Jurkat-EtBr cells which lack functional mitochondrial. To confirm that Jurkat-EtBr cells lack mitochondria, the mitochondria specific markers adenine nucleotide translocator (ANT) and complex I (ND1) were measured by Western blotting. (B) Avocatin B's activity was tested in cells with (JURK) and with reduced (JURK-EtBr) mitochondria. Viability was measured by the ANN/PI assay and flow cytometry and data are presented as mean percentage of live cells (i.e., ANN/PI^−)±SD from representative experiments. […] Cell viability was measured by the sulforhodamine B assay, as described in the methods, following a 72 hour incubation period. Data are presented as percent viable. (D) Uncoupling protein 2 (UCP2) was measured in whole cell lysates of avocatin B (10 μM) or DMSO-control treated TEX cells by Western blotting. Arbitrary units (AU) are presented as fold change (compared to the 6 hour time point) and were calculated by dividing each treatment lane by the densitometry of its loading control. Densitometry was calculated as outlined in the methods.
Cell growth and viability were measured by the sulforhodamine B assay (Sigma Chemical) as previously described^8 following 72 hours of incubation.

[4] = system: fatty acid oxidation in TEX cells; assay: Fatty acid oxidation, oxygen consumption rate (Seahorse XF24); settings: avocatin B 10 μM, etomoxir 100 μM, palmitate 175 μM
Protocol: Measurement of oxygen consumption rates were performed using a Seahorse XF24 extracellular flux analyzer (Seahorse Bioscience; North Billerica, Mass.). TEX cells were cultured in α-Minimum Essential Medium (Life Technologies) containing 1% FBS and plated at 1×10^5 cells/well in poly-L-Lysine (Sigma Chemical) coated XF24 plates. Cells were incubated with etomoxir (100 μM; Sigma Chemical) or vehicle control for 30 minutes at 37° C. in a humidified atmosphere containing 5% CO2. Next, palmitate (175 μM; Seahorse Bioscience) or avocatin B (10 μM) was added and immediately transferred to the XF24 analyzer. Oxidation of exogenous fatty acids was determined by measuring mitochondrial respiration through sequential injection of 5 μM (final concentration) oligomycin, an ATP synthase inhibitor, (Millipore, Billerica, Mass.), 5 μM CCCP, a hydrogen ion ionophore, (Sigma Chemical), and 5 μM rotenone (Millipore)/5 μM antimycin A, which inhibit complex III activity, (Sigma Chemical). Fatty acid oxidation was determined by the change in oxygen consumption following oligomycin and CCCP treatment and prior to antimycin and rotenone treatment, according to the manufacturer's protocol and as described in Abe et al. (2013)^13. Data were analyzed with XF software (Seahorse Bioscience).

TEX cells [5] = assay: ANN/PI viability of TEX cells with antioxidants or etomoxir; settings: 100 μM, 72 hours
Protocol: FIG. 6: Avocatin B inhibits fatty acid oxidation resulting in reduced NADPH and elevated ROS. (A) Illustration of fatty acid oxidation in mitochondria. Long chain fatty acids (LCFA) enter the mitochondria via CPT1 for fatty acid oxidation to yield acetyl-CoA. Acetyl-CoA enters the TCA cycle to generate NADPH, an enzymatic co-factor and antioxidant. (ME: malic enzyme; IDH: isocitrate dehydrogenase; α-KG: α-ketoglutarate). (B) Oxidation of exogenous fatty acids was assessed by measuring the oxygen consumption rate (OCR) in TEX cells treated with palmitate (175 μM), avocatin B (10 μM), avocatin B and palmitate or palmitate and etomoxir (100 μM). […] Effects on fatty acid oxidation were measured with the Seahorse Bioanalyzer, as detailed in the methods section, and (C) quantified by peak area after oligomycin and CCCP treatment, as described by the manufacturer's protocol and detailed in the methods. […] Viability was measured by the ANN/PI assay and data are presented as mean percentage of viable cells (i.e., ANN^−/PI^−)±SD from representative experiments. […] Data, percentage of NADH compared with vehicle control-treated cells±SD; (H) GSH was measured in TEX cells in the presence or absence of NAC using a commercially available fluorimetric assay following treatment with avocatin B ([…]), according to the manufacturers protocol. […]

TEX cells [6] = assay: NADPH, NADH and GSH fluorimetric detection; settings: avocatin B 10 μM, etomoxir 100 μM; also in the presence of palmitate 175 μM
Protocol: Nicotinamide adenine dinucleotide phosphate (NADPH), nicotinamide adenine dinucleotide (NAD) and glutathione (GSH) were measured by commercially available fluorimetric kits (e.g. Amplite™ Fluorimetric kit (AAT Bioquest; Sunnyvale, Calif.) according to the manufacturers' protocol and as previously described^16, following incubation of increasing duration with avocatin B (10 μM). For NAPDH studies, cells were also incubated with palmitate (175 μM) in the presence or absence of etomoxir. For NADH and GSH studies, cells were incubated in the presence of palmitate and N-acetylcysteine (NAC; 1 mmol/L), respectively. Data are presented as a percent NAD, NADPH or GSH compared to control treated cells±SD.

[7] = 72 hours, avocatin B 2 μM, antimycin A 1 μM, rotenone 3 μM, daunorubicin 5 nM, cytarabine 4 nM

C=CCCCCCCCCCCCC(O)CC(O)CO (stereo not shown) [avocadene]
amount of cell death (PI positive) in TEX cells, rank among the lipids (TEX cells [1]): least amount of cell death

C#CCCCCCCCCCCCC(O)CC(O)COC(C)=O (stereo not shown) [avocadyne acetate]
ROS activity of avocatin analogues (TEX cells [2]; Example 5, FIG. 12): induce ROS activity
ROS activity of avocatin analogues (TEX cells [2]; Example 5, FIG. 12, listed as Avocadyne Acetate): induce ROS production
cytotoxicity toward TEX cells (TEX leukemia cells): induce cytotoxicity

C#CCCCCCCCCCCCC(O)CC(O)CO (stereo not shown) [avocadyne]
ROS activity of avocatin analogues (TEX cells [2]; Example 5, FIG. 12): induce ROS activity
ROS activity of avocatin analogues (TEX cells [2]; Example 5, FIG. 12, listed as Avoadyne): induce ROS production
amount of cell death (PI positive) in TEX cells, rank among the lipids (TEX cells [1]): greatest amount of cell death
cytotoxicity toward TEX cells (TEX leukemia cells): induce cytotoxicity

COc1cccc2c1C(=O)c1c(O)c3c(c(O)c1C2=O)C[C@@](O)(C(C)=O)C[C@@H]3O[C@H]1C[C@H](N)[C@H](O)[C@H](C)O1 [daunorubicin]
activity in hypoxic (1% oxygen) versus normoxic (21% oxygen) conditions (TEX cells [3]; [7]): unaffected

CCOC(=O)[C@@]1(CCCCCCOc2ccc(Cl)cc2)CO1 [etomoxir]
oxidation of exogenous palmitate (oxygen consumption rate) [4]: blocked
effect of etomoxir on TEX viability (TEX cells [5]): does not impart toxicity
effect of etomoxir on TEX viability (TEX cells [5]; listed as Etomoxir): did not reduce viability
reduction in NADPH (TEX cells [6]): ~50%

C=C(C)[C@H]1Cc2c(ccc3c2O[C@@H]2COc4cc(OC)c(OC)cc4[C@@H]2C3=O)O1 [rotenone]
activity in hypoxic (1% oxygen) versus normoxic (21% oxygen) conditions (TEX cells [3]; [7]): reduced

antimycin
activity in hypoxic (1% oxygen) versus normoxic (21% oxygen) conditions (TEX cells [3]; [7]): reduced

cytarabine
activity in hypoxic (1% oxygen) versus normoxic (21% oxygen) conditions (TEX cells [3]): unaffected
